Broadly, the DC50 is the concentration giving 50% degradation.

Holding throughout (type): cell-based
The target of experiment [1] is T1, EGFR T790M/L858R/C797S (NCI-H1975+CS cells) (Homo sapiens, UniProt P00533, C797S/L858R/T790M).
T1 construct: NCI-H1975+CS (harboring EGFR heterozygous T/790M/L858R/C797S mutations) was generated using CRISPR technology; host or cells: NCI-H1975+CS (CRISPR-edited NCI-H1975)
Put plainly: EGFR (L858R) degradation analysis, Total EGFR (L858R) HTRF, NCI-H1975+CS cells. The settings on record: 6 hours, read-out: H1975 C797S clone EGFR DC50. From the text: NCI-H1975 (harboring EGFR heterozygous T790M/L858R mutations) and NCI-H3255 (harboring EGFR heterozygous L858R mutation) were purchased from ATCC and NCI, respectively. NCI-H1975+CS (harboring EGFR heterozygous T/790M/L858R/C797S mutations) was generated using CRISPR technology to introduce the additional C797S mutation by Horizon Discovery. RPMI 1640 no-phenol red medium and fetal bovine serum (FBS) were purchased from Gibco (Grand Island, NY, USA). Cell culture flasks and 384-well microplates were acquired from VWR (Radnor, PA, USA). Total EGFR (L858R) HTRF assay kits were purchased from Cisbio (Bedford, MA, USA).
Degradation of EGFR protein containing L858R mutation was determined based on quantification of FRET signal using Total EGFR (L858R) HTRF assay kit. Test compounds were added to the 384-well plate from a top concentration of 10 μM with 11 points, half log titration in duplicates. NCI-H1975, NCI-H1975+CS or NCI-H3255 cells were added into 384-well plates at a cell density of 10000, 10000 or 1000 cells per well, respectively. The plates were kept at 37° C. with 5% CO2 for 6 hours. Cells treated in the absence of the test compound were the negative control. Positive control was set by wells containing all reagents but no cells. FRET signal was acquired on EnVision™ Multilabel Reader (PerkinElmer, Santa Clara, CA, USA).

Experiment [2] addresses T2, EGFR L858R (NCI-H3255 cells) (Homo sapiens, UniProt P00533, L858R).
T2 construct: NCI-H3255 (harboring EGFR heterozygous L858R mutation); host or cells: NCI-H3255
Put plainly: EGFR (L858R) degradation analysis, Total EGFR (L858R) HTRF, NCI-H3255 cells. The conditions noted are these: 6 hours. In a few lines: (§1)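 Cells (10000/well NCI-H1975 and NCI-H1975+CS, 1000/well NCI-H3255) treated with 11-point half-log titrations from 10 μM top, in duplicate, for 6 hours at 37° C., 5% CO2. Total EGFR (L858R) quantified by HTRF FRET; untreated cells as negative and cell-free wells as positive control.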
In general terms: Time-resolved FRET reads energy transfer from a long-lived donor to a nearby acceptor.

The target of experiment [3] is T3, EGFR T790M/L858R (NCI-H1975 cells) (Homo sapiens, UniProt P00533, L858R/T790M).
T3 construct: NCI-H1975 (harboring EGFR heterozygous T790M/L858R mutations); host or cells: NCI-H1975
Put plainly: EGFR (L858R) degradation analysis, Total EGFR (L858R) HTRF, NCI-H1975 cells. The conditions noted are these: 6 hours. In a few lines:
as §1

T2 sequence (P00533 25-1210 L858R): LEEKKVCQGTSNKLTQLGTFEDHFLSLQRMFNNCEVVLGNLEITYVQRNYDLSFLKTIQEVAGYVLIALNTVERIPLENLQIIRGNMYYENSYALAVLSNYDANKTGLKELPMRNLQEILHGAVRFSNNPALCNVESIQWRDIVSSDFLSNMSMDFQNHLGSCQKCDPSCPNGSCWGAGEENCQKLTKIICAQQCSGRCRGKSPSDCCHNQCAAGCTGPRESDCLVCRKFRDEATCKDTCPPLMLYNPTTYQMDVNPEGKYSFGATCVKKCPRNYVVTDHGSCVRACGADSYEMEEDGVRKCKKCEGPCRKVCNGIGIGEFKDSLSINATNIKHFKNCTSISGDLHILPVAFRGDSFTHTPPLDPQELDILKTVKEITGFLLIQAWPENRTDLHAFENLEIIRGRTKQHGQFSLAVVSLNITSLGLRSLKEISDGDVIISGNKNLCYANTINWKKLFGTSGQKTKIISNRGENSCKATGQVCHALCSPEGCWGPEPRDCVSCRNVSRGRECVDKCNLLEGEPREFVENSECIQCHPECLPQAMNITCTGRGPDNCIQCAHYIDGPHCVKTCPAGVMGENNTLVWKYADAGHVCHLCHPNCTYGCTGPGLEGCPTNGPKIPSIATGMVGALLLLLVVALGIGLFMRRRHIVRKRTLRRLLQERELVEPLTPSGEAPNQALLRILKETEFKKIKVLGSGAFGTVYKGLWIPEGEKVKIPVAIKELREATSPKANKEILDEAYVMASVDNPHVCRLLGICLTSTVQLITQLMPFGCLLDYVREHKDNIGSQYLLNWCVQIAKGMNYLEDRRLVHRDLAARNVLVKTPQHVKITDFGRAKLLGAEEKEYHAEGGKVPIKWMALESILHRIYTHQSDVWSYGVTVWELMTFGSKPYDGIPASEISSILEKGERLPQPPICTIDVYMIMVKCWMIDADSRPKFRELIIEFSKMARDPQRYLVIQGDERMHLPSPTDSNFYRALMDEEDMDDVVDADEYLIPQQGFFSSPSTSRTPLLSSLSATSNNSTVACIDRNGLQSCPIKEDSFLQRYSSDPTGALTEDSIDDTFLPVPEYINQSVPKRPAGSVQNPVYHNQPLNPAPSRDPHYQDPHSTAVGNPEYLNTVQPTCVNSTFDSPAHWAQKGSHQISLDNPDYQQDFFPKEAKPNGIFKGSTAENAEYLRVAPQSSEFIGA
T1 sequence (P00533 25-1210 T790M/C797S/L858R): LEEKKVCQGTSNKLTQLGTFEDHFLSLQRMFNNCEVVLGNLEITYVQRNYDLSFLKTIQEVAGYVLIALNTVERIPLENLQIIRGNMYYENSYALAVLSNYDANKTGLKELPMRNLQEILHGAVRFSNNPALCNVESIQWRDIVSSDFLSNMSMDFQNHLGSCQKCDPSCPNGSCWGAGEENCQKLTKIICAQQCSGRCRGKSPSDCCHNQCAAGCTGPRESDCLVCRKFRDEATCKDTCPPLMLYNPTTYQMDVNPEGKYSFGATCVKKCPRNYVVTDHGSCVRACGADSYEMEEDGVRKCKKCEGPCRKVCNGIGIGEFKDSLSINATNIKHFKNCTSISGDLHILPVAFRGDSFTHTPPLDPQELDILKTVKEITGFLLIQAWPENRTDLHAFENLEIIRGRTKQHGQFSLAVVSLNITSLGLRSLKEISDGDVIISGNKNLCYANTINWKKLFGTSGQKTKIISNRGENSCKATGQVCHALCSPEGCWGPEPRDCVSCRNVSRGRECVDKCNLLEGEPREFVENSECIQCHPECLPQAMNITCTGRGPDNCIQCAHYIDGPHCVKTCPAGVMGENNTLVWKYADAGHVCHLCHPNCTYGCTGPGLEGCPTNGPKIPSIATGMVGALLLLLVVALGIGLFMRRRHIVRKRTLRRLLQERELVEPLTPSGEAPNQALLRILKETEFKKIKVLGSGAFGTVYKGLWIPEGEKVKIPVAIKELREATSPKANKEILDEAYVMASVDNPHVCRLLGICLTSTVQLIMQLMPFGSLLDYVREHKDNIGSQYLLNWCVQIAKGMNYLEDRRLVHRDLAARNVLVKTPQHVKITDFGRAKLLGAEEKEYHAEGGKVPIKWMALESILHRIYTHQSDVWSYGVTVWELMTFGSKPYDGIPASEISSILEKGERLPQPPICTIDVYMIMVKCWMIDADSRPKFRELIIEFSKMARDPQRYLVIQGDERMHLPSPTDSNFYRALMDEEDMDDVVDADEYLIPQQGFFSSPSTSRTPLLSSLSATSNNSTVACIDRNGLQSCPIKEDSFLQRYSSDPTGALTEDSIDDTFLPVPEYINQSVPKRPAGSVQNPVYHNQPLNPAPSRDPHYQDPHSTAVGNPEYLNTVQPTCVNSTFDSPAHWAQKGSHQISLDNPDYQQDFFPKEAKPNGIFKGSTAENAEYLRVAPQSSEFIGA
T3 sequence (P00533 25-1210 T790M/L858R): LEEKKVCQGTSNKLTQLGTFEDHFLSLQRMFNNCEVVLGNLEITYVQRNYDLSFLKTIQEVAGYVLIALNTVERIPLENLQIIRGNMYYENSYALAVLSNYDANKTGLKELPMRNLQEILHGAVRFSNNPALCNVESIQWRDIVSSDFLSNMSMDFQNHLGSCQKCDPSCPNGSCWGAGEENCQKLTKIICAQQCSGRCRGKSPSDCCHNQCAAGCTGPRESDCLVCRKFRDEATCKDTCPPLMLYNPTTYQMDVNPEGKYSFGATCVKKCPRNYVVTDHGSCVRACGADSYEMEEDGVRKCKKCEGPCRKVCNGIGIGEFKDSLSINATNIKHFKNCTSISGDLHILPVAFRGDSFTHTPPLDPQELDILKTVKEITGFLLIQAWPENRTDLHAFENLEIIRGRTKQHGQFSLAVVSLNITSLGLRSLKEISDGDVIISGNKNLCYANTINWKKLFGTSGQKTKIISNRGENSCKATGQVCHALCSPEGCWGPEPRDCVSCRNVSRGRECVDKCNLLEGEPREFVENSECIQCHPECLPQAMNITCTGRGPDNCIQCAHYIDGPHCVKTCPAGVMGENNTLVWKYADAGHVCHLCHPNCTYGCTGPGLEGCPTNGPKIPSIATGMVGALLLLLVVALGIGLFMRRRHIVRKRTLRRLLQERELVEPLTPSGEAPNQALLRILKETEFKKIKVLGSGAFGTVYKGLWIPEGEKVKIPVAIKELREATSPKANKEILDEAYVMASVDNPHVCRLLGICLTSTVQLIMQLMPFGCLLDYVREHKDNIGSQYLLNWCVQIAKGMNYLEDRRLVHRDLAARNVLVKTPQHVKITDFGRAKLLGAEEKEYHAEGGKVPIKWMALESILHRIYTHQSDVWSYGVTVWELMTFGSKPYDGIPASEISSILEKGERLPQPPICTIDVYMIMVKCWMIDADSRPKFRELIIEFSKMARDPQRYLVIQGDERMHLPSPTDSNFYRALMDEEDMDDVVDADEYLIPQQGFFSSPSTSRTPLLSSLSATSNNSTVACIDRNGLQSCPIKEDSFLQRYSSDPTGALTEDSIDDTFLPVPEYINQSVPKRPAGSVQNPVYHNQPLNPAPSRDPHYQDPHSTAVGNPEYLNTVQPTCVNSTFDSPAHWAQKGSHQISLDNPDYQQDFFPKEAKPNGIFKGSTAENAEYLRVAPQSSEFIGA

For the compound `N#Cc1cc(NC2CCC(=O)NC2=O)ccc1C1CCN(CC(=O)N2CCC(c3ccc(-c4cc(F)c5c(c4)C(=O)N(C(C(=O)Nc4nccs4)c4ncn6c4CCC6)C5)cc3)CC2)CC1` (stereo not drawn) [Compound 25, 2-(6-(4-(1-(2-(4-(2-cyano-4-((2,6-dioxopiperidin-3-yl)amino)phenyl)piperidin-1-yl)acetyl)piperidin-4-yl)phenyl)-4-fluoro-1-oxoisoindolin-2-yl)-2-(6,7-dihydro-5H-pyrrolo[1,2-c]imidazol-1-yl)-N-(thiazol-2-yl)acetamide], the values for the DC50 in experiment [1], in experiment [2] and in experiment [3] were 17 nM, 6 nM and 25 nM, respectively.
The corresponding values for `N#Cc1cc(NC2CCC(=O)NC2=O)ccc1C1CCN(CC(=O)N2CCC(Oc3ccc(-c4cc(F)c5c(c4)C(=O)N(C(C(=O)Nc4nccs4)c4ncn6c4CCC6)C5)cc3)CC2)CC1` (stereo not drawn) [Compound 37, 2-(6-(4-((1-(2-(4-(2-cyano-4-((2,6-dioxopiperidin-3-yl)amino)phenyl)piperidin-1-yl)acetyl)piperidin-4-yl)oxy)phenyl)-4-fluoro-1-oxoisoindolin-2-yl)-2-(6,7-dihydro-5H-pyrrolo[1,2-c]imidazol-1-yl)-N-(thiazol-2-yl)acetamide] are 19 nM, 16 nM and 46 nM.
The corresponding values for `O=C1CCC(Nc2ccc(C3CCN(CC(=O)N4CC5(C4)CN(c4ccc(-c6cc(F)c7c(c6)C(=O)N(C(C(=O)Nc6nccs6)c6ncn8c6CCC8)C7)cc4)C5)CC3)cc2)C(=O)N1` (stereo not drawn) [Compound 47, 2-(6,7-dihydro-5H-pyrrolo[1,2-c]imidazol-1-yl)-2-[6-[4-[2-[2-[4-[4-[(2,6-dioxo-3-piperidyl)amino]phenyl]-1-piperidyl]acetyl]-2,6-diazaspiro[3.3]heptan-6-yl]phenyl]-4-fluoro-1-oxo-isoindolin-2-yl]-N-thiazol-2-yl-acetamide] are 9 nM, 10 nM and 18 nM.
As to `O=C1CCC(Nc2ccc(C3CCN(CC(=O)N4CCN(c5ccc(-c6cc(F)c7c(c6)C(=O)N(C(C(=O)Nc6ccccn6)c6ncn8c6CCC8)C7)cc5)CC4)CC3)cc2)C(=O)N1` (stereo not drawn) [Compound 19, 2-(6,7-dihydro-5H-pyrrolo[1,2-c]imidazol-1-yl)-2-(6-(4-(4-(2-(4-(4-((2,6-dioxopiperidin-3-yl)amino)phenyl)piperidin-1-yl)acetyl)piperazin-1-yl)phenyl)-4-fluoro-1-oxoisoindolin-2-yl)-N-(pyridin-2-yl)acetamide], the DC50 in experiment [1] was 20 nM; in experiment [2], 13 nM; in experiment [3] it was 50 nM.
For the compound `O=C1CCC(Nc2ccc(C3CCN(CC(=O)N4CCC(Oc5ccc(-c6cc(F)c7c(c6)C(=O)N(C(C(=O)Nc6nccs6)c6ncn8c6CCC8)C7)cc5)CC4)CC3)cc2F)C(=O)N1` (stereo not drawn) [Compound 34, 2-(6,7-dihydro-5H-pyrrolo[1,2-c]imidazol-1-yl)-2-(6-(4-((1-(2-(4-(4-((2,6-dioxopiperidin-3-yl)amino)-3-fluorophenyl)piperidin-1-yl)acetyl)piperidin-4-yl)oxy)phenyl)-4-fluoro-1-oxoisoindolin-2-yl)-N-(thiazol-2-yl)acetamide], the 50% degradation concentration (DC50) in experiment [1] turned out to be 22 nM; in experiment [2], 13 nM; in experiment [3] it was 57 nM.

These data come from US12486290B2, “Isoindolinone and indazole compounds for the degradation of EGFR” (C4 THERAPEUTICS, INC., priority 2019, dated 2025).
